Source: paper PMC10026764, “Overcoming the imatinib-resistant BCR-ABL mutants with new ureidobenzothiazole chemotypes endowed with potent and broad-spectrum anticancer activity” (Journal of Enzyme Inhibition and Medicinal Chemistry, 2023)
“And” between values parts separate entries of the source, which are not always exact repeats. Equal entries are not always repeated.

Assays:
NCI-H460 = assay: cells; format: cell-based; settings: for CC50 / TGI: NCI-H460, NSCL cancer; for CC50: read-out: LC50 (the source's name)
SF-268 = assay: NCI-60 five-dose SRB assay; format: cell-based; settings: Homo sapiens; SF-268, CNS cancer
MDA-MB-435 = assay: NCI-60 five-dose SRB assay; format: cell-based; settings: Homo sapiens; MDA-MB-435, melanoma
NCI-H226 = assay: NCI-60 five-dose SRB assay; format: cell-based; settings: Homo sapiens; NCI-H226, non-small cell lung cancer
MALME-3M = assay: NCI-60 five-dose SRB assay; format: cell-based; settings: Homo sapiens, melanoma
MCF7 = assay: NCI-60 five-dose SRB assay; format: cell-based, human; settings: MCF7, breast cancer; for GI50 / CC50: Homo sapiens; for CC50: read-out: LC50 (the source's name)
RPMI-8226 = assay: NCI-60 five-dose SRB assay; format: cell-based; settings: Homo sapiens; RPMI-8226, leukaemia
HCT-15 = assay: NCI-60 five-dose SRB assay; format: cell-based, human; settings: HCT-15, colon cancer; for GI50 / CC50: Homo sapiens; for CC50: read-out: LC50 (the source's name)
SNB-75 = assay: NCI-60 five-dose SRB assay; format: cell-based, human; settings: SNB-75, CNS cancer; for GI50 / CC50: Homo sapiens; for CC50: read-out: LC50 (the source's name)
HOP-92 = assay: NCI-60 five-dose SRB assay; format: cell-based; settings: Homo sapiens; HOP-92, non-small cell lung cancer
DU-145 = assay: NCI-60 five-dose SRB assay; format: cell-based, human; settings: DU-145, prostate cancer; for GI50 / CC50: Homo sapiens; for CC50: read-out: LC50 (the source's name)
L132 normal cell = assay: MTT antiproliferative assay; settings: Homo sapiens, L132, 72 h, read-out: GI50 L132
Excerpt: (§1) These cellular outcomes define the impact of BCR-ABL inhibition on the proliferation of K-562 cells.

COLO 205 = assay: NCI-60 five-dose SRB assay; format: cell-based; settings: Homo sapiens; COLO 205, colon cancer
HS 578T = assay: NCI-60 five-dose SRB assay; format: cell-based; settings: Homo sapiens, breast cancer
leukaemia K-562 cells = assay: MTT antiproliferative assay; settings: for GI50: Homo sapiens, K562, 72 h, read-out: GI50 K-562; for SI: selectivity index (GI50 (L132)/GI50 (K562)): MTT, 72 h
Excerpt: as §1

PC-3 = assay: NCI-60 five-dose SRB assay; format: cell-based; settings: Homo sapiens; PC-3, prostate cancer
NCI-H23 = assay: NCI-60 five-dose SRB assay; format: cell-based; settings: Homo sapiens; NCI-H23, non-small cell lung cancer
SK-MEL-5 = assay: cells; format: cell-based; settings: SK-MEL-5, melanoma; for GI50 / LC50 (50% lethal concentration): Homo sapiens
UACC-257 = assay: NCI-60 five-dose SRB assay; format: cell-based; settings: Homo sapiens; UACC-257, melanoma
SK-OV-3 = assay: NCI-60 five-dose SRB assay; format: cell-based; settings: Homo sapiens; SK-OV-3, ovarian cancer
OVCAR-5 = assay: NCI-60 five-dose SRB assay; format: cell-based, human; settings: OVCAR-5, ovarian cancer; for GI50 / LC50 (50% net cell kill): Homo sapiens
T-47D = assay: NCI-60 five-dose SRB assay; format: cell-based; settings: Homo sapiens, T47D, breast cancer
U251 = assay: cells; format: cell-based; settings: U251, CNS cancer; for GI50 / CC50: Homo sapiens, U-251; for CC50: read-out: LC50 (the source's name)
MOLT-4 = assay: NCI-60 five-dose SRB assay; format: cell-based, human; settings: MOLT-4, leukaemia; for GI50 / CC50: Homo sapiens; for CC50: read-out: LC50 (the source's name)
HL-60(TB) = assay: NCI-60 five-dose SRB assay; format: cell-based; settings: Homo sapiens, leukaemia
NCI/ADR-RES = assay: NCI-60 five-dose SRB assay; format: cell-based; settings: Homo sapiens, ovarian cancer
SF-295 = assay: NCI-60 five-dose SRB assay; format: cell-based; settings: Homo sapiens; SF-295, CNS cancer
CCRF-CEM = assay: NCI-60 five-dose SRB assay; format: cell-based; settings: Homo sapiens, leukaemia
NCI-H522 = assay: NCI-60 five-dose SRB assay; format: cell-based, human
A498 = assay: NCI-60 five-dose SRB assay; format: cell-based; settings: Homo sapiens; A498, renal cancer
BCR-ABL^T315I = biological target: T1, BCR-ABL^T315I (Homo sapiens, UniProt P00519, T315I); assay: In vitro kinase screening (RBC), BCR-ABL^T315I; format: biochemical; settings: 10-dose IC50 mode, 3-fold serial dilution, 10 μM ATP
T1 construct: purchased Reaction Biology Corporation (RBC, Malvern, PA, USA)

NCI-60 cell lines = assay: NCI-60 single dose SRB assay (panel); format: cell-based; settings: single dose 10 μM
Excerpt: To gain further insights about the anticancer profile of this new ureidobenzothiazole chemotypes, the structures of all final compounds were submitted to the National Cancer Institute (NCI, Developmental Therapeutics Program, Bethesda, MD, USA). Based on NCI selection criteria, compounds 2b (AK-HW-90), 2e, and 2f were chosen for broad screening against a library of 60 human cancer cell lines, representing nine types of blood and solid cancers. Employing the highly sensitive sulforhodamine B (SRB) assay, compounds 2b, 2e, and 2f were tested initially at a single dose of 10 μM, and their detailed activities on the percentages growth of the NCI-60 cell lines were illustrated in Figure 5, and compared with that observed for the lead benzothiazole AKE-5l.

OVCAR-4 = assay: NCI-60 five-dose SRB assay; format: cell-based; settings: Homo sapiens; OVCAR-4, ovarian cancer
MDA-MB-468 = assay: NCI-60 five-dose SRB assay; format: cell-based; settings: Homo sapiens; MDA-MB-468, breast cancer
[1] = Homo sapiens, NCI-H460, NCI-H460, non-small cell lung cancer
[2] = Homo sapiens, NCI-H522, NCI-H522, non-small cell lung cancer

CCN1CCN(c2ccc(NC(=O)Nc3nc4ccc(-c5ccccc5OC)cc4s3)cc2)CC1 [Compound 2b]
GI50 (NCI-H460; [1]): ~1760 nM | CC50 (NCI-H460; Homo sapiens): 6010 nM | TGI (NCI-H460): 3270 nM | GI50 (NCI-H460; NCI-H460, non-small cell lung cancer): 1770 nM | GI50 (SF-268): 1870 nM | GI50 (MDA-MB-435): 1710 nM | GI50 (NCI-H226): 2090 nM | GI50 (MALME-3M): 1710 nM | GI50 (MCF7): 1310 nM | CC50 (MCF7): 6250 nM | TGI (MCF7): 2860 nM | GI50 (RPMI-8226): 2060 nM | TGI (HCT-15): 2470 nM | GI50 (HCT-15): 1200 nM | CC50 (HCT-15): 5060 nM | GI50 (SNB-75): 1490 nM | CC50 (SNB-75): 5460 nM | TGI (SNB-75): 2860 nM | GI50 (HOP-92): 1470 nM | TGI (DU-145): 3260 nM | GI50 (DU-145): 1740 nM | CC50 (DU-145): 6080 nM | GI50 (L132 normal cell): 17900 nM | GI50 (COLO 205): 1970 nM | GI50 (HS 578T): 1950 nM | GI50 (leukaemia K-562 cells): 3390 nM | SI: selectivity index (GI50 (L132)/GI50 (K562)) (leukaemia K-562 cells): 5.3 | GI50 (PC-3): 1790 nM | GI50 (NCI-H23): 1670 nM | GI50 (SK-MEL-5): 1730 nM | LC50 (50% lethal concentration) (SK-MEL-5): 5630 nM | TGI (SK-MEL-5): 3120 nM | GI50 (UACC-257): 2110 nM | GI50 (SK-OV-3): 1790 nM | GI50 (OVCAR-5): 1800 nM | LC50 (50% net cell kill) (OVCAR-5): 6330 nM | TGI (OVCAR-5): 3370 nM | GI50 (T-47D): 1580 nM | GI50 (U251): 1570 nM | CC50 (U251): 5510 nM | TGI (U251): 2940 nM | GI50 (MOLT-4): 1800 nM | CC50 (MOLT-4): 7450 nM | TGI (MOLT-4): 3670 nM | GI50 (HL-60(TB)): 1730 nM | GI50 (NCI/ADR-RES): 1720 nM | GI50 (SF-295): 1680 nM | GI50 (CCRF-CEM): 1810 nM | GI50 (NCI-H522; [2]): ~1760 nM | GI50 (NCI-H522; NCI-H522, non-small cell lung cancer): 1750 nM | GI50 (A498): 1800 nM | IC50 (BCR-ABL^T315I): 0.65 nM and 0.651 nM | number of cancer cells with lethal/cytotoxic effects (minus % growth values) (NCI-60 cell lines): 55 cancer cells | GI50 (OVCAR-4): 1680 nM | GI50 (MDA-MB-468): 2170 nM

COc1ccccc1-c1ccc2nc(NC(=O)Nc3cc(C(F)(F)F)cc(C(F)(F)F)c3)sc2c1 [Compound 2e]
GI50 (NCI-H460; [1]): 2260 nM | CC50 (NCI-H460; Homo sapiens): 23500 nM | TGI (NCI-H460): 6120 nM | GI50 (SF-268): 2860 nM | GI50 (MDA-MB-435): 2270 nM | GI50 (NCI-H226): 2160 nM | GI50 (MALME-3M): 1810 nM | GI50 (MCF7): 2280 nM | CC50 (MCF7): 46200 nM | TGI (MCF7): 10900 nM | GI50 (RPMI-8226): 1630 nM | TGI (HCT-15): 10600 nM | GI50 (HCT-15): 2550 nM | CC50 (HCT-15): 34600 nM | GI50 (SNB-75): 2250 nM | CC50 (SNB-75): 45300 nM | TGI (SNB-75): 11800 nM | GI50 (HOP-92): 1190 nM | TGI (DU-145): 14900 nM | GI50 (DU-145): 4000 nM | CC50 (DU-145): 42400 nM | GI50 (L132 normal cell): 35000 nM | GI50 (COLO 205): 1650 nM | GI50 (HS 578T): 2350 nM | GI50 (leukaemia K-562 cells): 13900 nM | SI: selectivity index (GI50 (L132)/GI50 (K562)) (leukaemia K-562 cells): 2.5 | GI50 (PC-3): 1490 nM | GI50 (NCI-H23): 2020 nM | GI50 (SK-MEL-5): 1570 nM | LC50 (50% lethal concentration) (SK-MEL-5): 5640 nM | TGI (SK-MEL-5): 2980 nM | GI50 (UACC-257): 2310 nM | GI50 (SK-OV-3): 2920 nM | GI50 (OVCAR-5): 2540 nM | LC50 (50% net cell kill) (OVCAR-5): 32700 nM | TGI (OVCAR-5): 9660 nM | GI50 (T-47D): 2160 nM | GI50 (U251): 2310 nM | CC50 (U251): 34400 nM | TGI (U251): 10300 nM | GI50 (MOLT-4): 1590 nM | CC50 (MOLT-4): 51300 nM | TGI (MOLT-4): 7240 nM | GI50 (HL-60(TB)): 2010 nM | GI50 (NCI/ADR-RES): 2370 nM | GI50 (SF-295): 2640 nM | GI50 (CCRF-CEM): 2430 nM | GI50 (NCI-H522; [2]): 1760 nM | GI50 (A498): 1640 nM | IC50 (BCR-ABL^T315I): 9560 nM | number of cancer cells with lethal/cytotoxic effects (minus % growth values) (NCI-60 cell lines): 21 cancer cells | GI50 (OVCAR-4): 2120 nM | GI50 (MDA-MB-468): 1520 nM

Cc1ccc(NC(=O)c2ccc(CN3CCN(C)CC3)cc2)cc1Nc1nccc(-c2cccnc2)n1 [Imatinib]
GI50 (L132 normal cell): > 10000 nM | GI50 (leukaemia K-562 cells): 800 nM
